The source of these data is patent publication US20230024096A1, “BIFUNCTIONAL COMPOUNDS FOR THE TREATMENT OF CANCER” (Hoffmann-La Roche Inc., priority 2019, published 2023).

The target in the experiment is T1, SMARCA2 (Homo sapiens, UniProt P51531).
T1 construct: endogenous in cells; host or cells: HT1080 (CRISPR HiBiT knock-in clone, generated in house)
Put plainly: SMARCA2 HiBiT degradation assay (cellular). It counts as cell-based. Particulars: table head names A549; for DC50: 6 h incubation, HiBiT-tagged SMARCA2, luminescence read-out, read-out: HiBit A549 SMARCA2 IP (nM) 6 h; for Emax: A549, 6 h incubation, Emax = amount of residual protein remaining in the cell following compound treatment. For orientation: HiBiT is a short tag that completes a luciferase, so light tracks the accessible tagged protein.

T1 sequence (P51531 whole entry): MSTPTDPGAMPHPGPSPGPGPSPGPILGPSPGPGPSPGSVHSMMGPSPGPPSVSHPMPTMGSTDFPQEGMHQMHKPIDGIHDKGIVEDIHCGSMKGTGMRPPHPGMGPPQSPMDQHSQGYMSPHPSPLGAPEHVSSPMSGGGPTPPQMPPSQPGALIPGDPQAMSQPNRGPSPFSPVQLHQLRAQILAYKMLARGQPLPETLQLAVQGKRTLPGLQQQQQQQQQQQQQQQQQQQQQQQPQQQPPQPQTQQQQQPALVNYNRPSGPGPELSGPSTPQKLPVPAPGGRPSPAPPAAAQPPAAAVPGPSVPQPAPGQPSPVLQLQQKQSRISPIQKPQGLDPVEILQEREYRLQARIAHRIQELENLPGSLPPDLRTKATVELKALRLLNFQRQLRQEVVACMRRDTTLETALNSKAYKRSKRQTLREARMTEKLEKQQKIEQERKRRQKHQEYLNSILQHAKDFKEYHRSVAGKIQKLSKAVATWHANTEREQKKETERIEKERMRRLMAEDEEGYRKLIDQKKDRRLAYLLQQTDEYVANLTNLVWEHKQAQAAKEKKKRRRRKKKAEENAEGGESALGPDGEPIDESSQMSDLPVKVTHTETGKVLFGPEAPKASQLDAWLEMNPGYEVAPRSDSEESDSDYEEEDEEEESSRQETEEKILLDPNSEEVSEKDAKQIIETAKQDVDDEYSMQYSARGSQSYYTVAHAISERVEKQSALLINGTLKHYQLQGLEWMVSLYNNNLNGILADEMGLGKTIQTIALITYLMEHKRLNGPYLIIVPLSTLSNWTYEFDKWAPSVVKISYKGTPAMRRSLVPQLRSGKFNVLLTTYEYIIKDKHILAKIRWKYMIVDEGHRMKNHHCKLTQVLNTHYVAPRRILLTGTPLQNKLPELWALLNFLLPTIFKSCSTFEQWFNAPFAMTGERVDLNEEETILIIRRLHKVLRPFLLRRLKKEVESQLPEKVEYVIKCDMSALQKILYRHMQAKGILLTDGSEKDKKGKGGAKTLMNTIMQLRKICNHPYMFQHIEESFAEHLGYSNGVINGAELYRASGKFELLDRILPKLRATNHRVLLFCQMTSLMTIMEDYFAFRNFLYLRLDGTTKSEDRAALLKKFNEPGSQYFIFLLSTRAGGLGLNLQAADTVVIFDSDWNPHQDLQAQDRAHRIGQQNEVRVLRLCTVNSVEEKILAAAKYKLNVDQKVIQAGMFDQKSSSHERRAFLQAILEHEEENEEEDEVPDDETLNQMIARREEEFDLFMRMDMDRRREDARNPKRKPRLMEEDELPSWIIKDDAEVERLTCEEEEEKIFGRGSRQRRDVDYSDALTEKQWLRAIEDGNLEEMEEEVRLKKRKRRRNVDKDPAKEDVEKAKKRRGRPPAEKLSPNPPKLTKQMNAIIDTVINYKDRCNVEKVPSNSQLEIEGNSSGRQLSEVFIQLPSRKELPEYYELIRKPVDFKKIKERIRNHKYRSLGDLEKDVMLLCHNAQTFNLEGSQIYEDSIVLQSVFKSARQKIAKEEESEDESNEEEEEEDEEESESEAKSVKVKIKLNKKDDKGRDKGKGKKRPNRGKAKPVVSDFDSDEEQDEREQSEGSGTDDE

As to `Nc1nnc(-c2ccccc2O)cc1N1CC2CCC(C1)N2c1cccc(CN2CCC(C(=O)N3C[C@@H]4CN(c5ccc6c(c5)C(=O)N(C5CCC(=O)NC5=O)C6=O)C[C@@H]4C3)CC2)c1` (relative stereo) [Example 171, rac-2-(2,6-dioxo-3-piperidyl)-5-[rel-(3aR,6aS)-5-[1-[[3-[3-[3-amino-6-(2-hydroxyphenyl)pyridazin-4-yl]-3,8-diazabicyclo[3.2.1]octan-8-yl]phenyl]methyl]piperidine-4-carbonyl]-1,3,3a,4,6,6a-hexahydropyrrolo[3,4-c]pyrrol-2-yl]isoindoline-1,3-dione], the DC50 was determined as 66 nM and the Emax is 40%.
Regarding `Nc1nnc(-c2ccccc2O)cc1N1CC2CCC(C1)N2c1cccc(OCCN2CCN(C(=O)CCC(=O)N3CCN(Cc4cccc5c4C(=O)N(C4CCC(=O)NC4=O)C5=O)CC3)CC2)c1` (racemic) [Example 22, rac-4-[[4-[4-[4-[2-[3-[3-[3-amino-6-(2-hydroxyphenyl)pyridazin-4-yl]-3,8-diazabicyclo[3.2.1]octan-8-yl]phenoxy]ethyl]piperazin-1-yl]-4-oxo-butanoyl]piperazin-1-yl]methyl]-2-(2,6-dioxo-3-piperidyl)isoindoline-1,3-dione], the DC50 amounted to 212 nM and the Emax turned out to be 28%.
On the same counts, the results for `Nc1nnc(-c2ccccc2O)cc1O[C@H]1CCCN(c2ccc(N3CCN(CC4CCN(C(=O)CCCCn5cc(COc6cccc7c6C(=O)N(C6CCC(=O)NC6=O)C7=O)nn5)CC4)CC3)cc2)C1` (mixture of isomers) [Example 140, 2-(2,6-dioxo-3-piperidyl)-4-[[1-[5-oxo-5-[4-[[4-[4-[rac-(3S)-3-[3-amino-6-(2-hydroxyphenyl)pyridazin-4-yl]oxy-1-piperidyl]phenyl]piperazin-1-yl]methyl]-1-piperidyl]pentyl]triazol-4-yl]methoxy]isoindoline-1,3-dione] are 275 nM and 42%.
Taken in the same sequence, the figures for `CN(C(=O)C1CCN(Cc2cccc(N3C4CCC3CN(c3cc(-c5ccccc5O)nnc3N)C4)c2)CC1)C1CN(c2ccc3c(c2)C(=O)N(C2CCC(=O)NC2=O)C3=O)C1` (racemic) [Example 170, rac-1-[[3-[3-[3-amino-6-(2-hydroxyphenyl)pyridazin-4-yl]-3,8-diazabicyclo[3.2.1]octan-8-yl]phenyl]methyl]-N-[1-[2-(2,6-dioxo-3-piperidyl)-1,3-dioxo-isoindolin-5-yl]azetidin-3-yl]-N-methyl-piperidine-4-carboxamide] were 18 nM and 31%.
Taken in the same sequence, the figures for `Nc1nnc(-c2ccccc2O)cc1N1CCC(C(=O)N2CC3(CCN(CC4CCN(c5ccc6c(c5)C(=O)N(C5CCC(=O)NC5=O)C6=O)CC4)C3)C2)(c2ccccc2)CC1` (stereo not shown) [Example 190, 5-(4-((2-(1-(3-amino-6-(2-hydroxyphenyl)pyridazin-4-yl)-4-phenylpiperidine-4-carbonyl)-2,6-diazaspiro[3.4]octan-6-yl)methyl)piperidin-1-yl)-2-(2,6-dioxopiperidin-3-yl)isoindoline-1,3-dione] were 22 nM and 29%.
With `Nc1nnc(-c2ccccc2O)cc1N1CC2CCC(C1)N2c1cccc(OCCN2CCN(CCOC3CCN(c4ccc5c(c4)C(=O)N(C4CCC(=O)NC4=O)C5=O)CC3)CC2)c1` (racemic) [Example 35, rac-5-[4-[2-[4-[2-[3-[3-[3-amino-6-(2-hydroxyphenyl)pyridazin-4-yl]-3,8-diazabicyclo[3.2.1]octan-8-yl]phenoxy]ethyl]piperazin-1-yl]ethoxy]-1-piperidyl]-2-(2,6-dioxo-3-piperidyl)isoindoline-1,3-dione], the DC50 came out at 22 nM and the Emax was 33%.
Taken in the same sequence, the figures for `Nc1nnc(-c2ccccc2O)cc1N1CC2CCC(C1)N2c1cccc(OCCN2CCN(C(=O)CCC(=O)N3CCC(Oc4cccc5c4C(=O)N(C4CCC(=O)NC4=O)C5=O)CC3)CC2)c1` (racemic) [Example 9, rac-4-[[1-[4-[4-[2-[3-[3-[3-amino-6-(2-hydroxyphenyl)pyridazin-4-yl]-3,8-diazabicyclo[3.2.1]octan-8-yl]phenoxy]ethyl]piperazin-1-yl]-4-oxo-butanoyl]-4-piperidyl]oxy]-2-(2,6-dioxo-3-piperidyl)isoindoline-1,3-dione] were 339 nM and 58%.
On to `Nc1nnc(-c2ccccc2O)cc1N1CC2CCC(C1)N2c1cccc(OCCN2CCN(C(=O)CNC(=O)C3CCN(c4ccc5c(c4)C(=O)N(C4CCC(=O)NC4=O)C5=O)CC3)CC2)c1` (racemic) [Example 141, rac-N-[2-[4-[2-[3-[3-[3-amino-6-(2-hydroxyphenyl)pyridazin-4-yl]-3,8-diazabicyclo[3.2.1]octan-8-yl]phenoxy]ethyl]piperazin-1-yl]-2-oxo-ethyl]-1-[2-(2,6-dioxo-3-piperidyl)-1,3-dioxo-isoindolin-5-yl]piperidine-4-carboxamide], for which the DC50 stood at 9 nM and the Emax worked out at 19%.
Taken in the same sequence, the figures for `Nc1nnc(-c2ccccc2O)cc1N1CCC(C(=O)N2CC3(CCN(C(=O)C4CCN(c5ccc6c(c5)C(=O)N(C5CCC(=O)NC5=O)C6=O)CC4)CC3)C2)(c2ccccc2)CC1` (stereo not shown) [Example 163, 5-(4-(2-(1-(3-amino-6-(2-hydroxyphenyl)pyridazin-4-yl)-4-phenylpiperidine-4-carbonyl)-2,7-diazaspiro[3.5]nonane-7-carbonyl)piperidin-1-yl)-2-(2,6-dioxopiperidin-3-yl)isoindoline-1,3-dione] were 22 nM and 33%.
`Nc1nnc(-c2cc(F)ccc2O)cc1N1CCC(CNC(=O)CCCN2CCC(c3ccc(OC4CCC(=O)NC4=O)cc3)CC2)(c2ccccc2)CC1` (stereo not shown) [Example 183, N-[[1-[3-amino-6-(5-fluoro-2-hydroxy-phenyl)pyridazin-4-yl]-4-phenyl-4-piperidyl]methyl]-4-[4-[4-[(2,6-dioxo-3-piperidyl)oxy]phenyl]-1-piperidyl]butanamide]: the DC50 stood at 99 nM and the Emax is 37%.
As for `Nc1nnc(-c2ccccc2O)cc1N1CC2CCC(C1)N2c1cccc(OCCN2CCN(C(=O)N3CCC(c4ccc(OC5CCC(=O)NC5=O)cc4)CC3)CC2)c1` (racemic) [Example 50, rac-3-[4-[1-[4-[2-[3-[3-[3-amino-6-(2-hydroxyphenyl)pyridazin-4-yl]-3,8-diazabicyclo[3.2.1]octan-8-yl]phenoxy]ethyl]piperazine-1-carbonyl]-4-piperidyl]phenoxy]piperidine-2,6-dione], the DC50 came out at 16 nM and the Emax stood at 44%.
Consider `Nc1nnc(-c2ccccc2O)cc1N1CC2CCC(C1)N2c1cccc(OCCN2CCN(CCCC3CCN(c4ccc5c(c4)C(=O)N(C4CCC(=O)NC4=O)C5=O)CC3)CC2)c1` (racemic) [Example 143, rac-5-[4-[3-[4-[2-[3-[3-[3-amino-6-(2-hydroxyphenyl)pyridazin-4-yl]-3,8-diazabicyclo[3.2.1]octan-8-yl]phenoxy]ethyl]piperazin-1-yl]propyl]-1-piperidyl]-2-(2,6-dioxo-3-piperidyl)isoindoline-1,3-dione], for which the DC50 was determined as 2 nM and the Emax came to 8%.
On the same counts, the results for `Nc1nnc(-c2ccccc2O)cc1O[C@H]1CCCN(c2ccc(N3CCN(CCCCCCCCCn4cc(CNc5cccc6c5C(=O)N(C5CCC(=O)NC5=O)C6=O)nn4)CC3)cc2)C1` (mixture of isomers) [Example 66, 2-(2,6-dioxo-3-piperidyl)-4-[[1-[9-[4-[4-[rac-(3S)-3-[3-amino-6-(2-hydroxyphenyl)pyridazin-4-yl]oxy-1-piperidyl]phenyl]piperazin-1-yl]nonyl]triazol-4-yl]methylamino]isoindoline-1,3-dione] are 144 nM and 60%.
Take `Nc1nnc(-c2ccccc2O)cc1OC1CCCN(c2ccc(N3CCN(CCCCC(=O)N4CCC(n5cc(COc6cccc7c6C(=O)N(C6CCC(=O)NC6=O)C7=O)nn5)CC4)CC3)cc2)C1` (racemic) [Example 138, 2-(2,6-dioxo-3-piperidyl)-4-[[1-[1-[5-[4-[4-[rac-(3S)-3-[3-amino-6-(2-hydroxyphenyl)pyridazin-4-yl]oxy-1-piperidyl]phenyl]piperazin-1-yl]pentanoyl]-4-piperidyl]triazol-4-yl]methoxy]isoindoline-1,3-dione]: the DC50 is 678 nM and the Emax stood at 42%.
Regarding `Nc1nnc(-c2ccccc2O)cc1N1CCC(CNC(=O)CCCN2CCC(c3ccc(OC4CCC(=O)NC4=O)cc3)CC2)(c2ccccc2)CC1` (stereo not shown) [Example 78, N-((1-(3-amino-6-(2-hydroxyphenyl)pyridazin-4-yl)-4-phenylpiperidin-4-yl)methyl)-4-(4-(4-((2,6-dioxopiperidin-3-yl)oxy)phenyl)piperidin-1-yl)butanamide], the DC50 was 23 nM and the Emax was found to be 35%.
In the case of `Nc1nnc(-c2ccccc2O)cc1N1CCC(C(=O)N2CC3(CCN(C(=O)CC4CCN(c5ccc6c(c5)C(=O)N(C5CCC(=O)NC5=O)C6=O)CC4)CC3)C2)(c2ccccc2)CC1` (stereo not shown) [Example 164, 5-(4-(2-(2-(1-(3-amino-6-(2-hydroxyphenyl)pyridazin-4-yl)-4-phenylpiperidine-4-carbonyl)-2,7-diazaspiro[3.5]nonan-7-yl)-2-oxoethyl)piperidin-1-yl)-2-(2,6-dioxopiperidin-3-yl)isoindoline-1,3-dione], the DC50 came to 42 nM and the Emax was 50%.
Taken in the same sequence, the figures for `Nc1nnc(-c2ccccc2O)cc1N1CC2CCC(C1)N2c1cccc(CN2CCN(C(=O)C3CN(c4ccc5c(c4)C(=O)N(C4CCC(=O)NC4=O)C5=O)C3)CC2)c1` (racemic) [Example 179, rac-5-[3-[4-[[3-[3-[3-amino-6-(2-hydroxyphenyl)pyridazin-4-yl]-3,8-diazabicyclo[3.2.1]octan-8-yl]phenyl]methyl]piperazine-1-carbonyl]azetidin-1-yl]-2-(2,6-dioxo-3-piperidyl)isoindoline-1,3-dione] were 100 nM and 39%.

A word on the Emax: it is the greatest response seen or fitted, relative to the assay's reference.
